# pIC50: −log10 of the molar value. Where “and” joins values, the source holds several entries; their conditions need not be identical. Equal entries are not always repeated.
# System: 519858-162-T-J1-PDC complex spheroid growth, % test/control
# Experiment: Anticancer human tumor 519858-162-T-J1-PDC patient-derived colon adenocarcinoma cell line growth inhibition [Asc]
# Settings: for viability, T/C: stronger effect = lower value
# Procedure: Multicellular complex tumor spheroid response to apoptosis pathway targeting inhibitors Alrizomadlin, Pelcitoclax, and Dasminapant in combination with a variety of drugs and investigational agents in selected tumor cell lines
# The MDM2 inhibitor alrizomadlin, the Bcl-2/Bcl-xL inhibitor pelcitoclax, and the IAPs inhibitor dasminapant were evaluated both individually and in combination with standard of care and investigational anticancer small molecules within a complex spheroid model of solid tumors. . Complex spheroids include a stromal component modeled by human endothelial cells (HUVEC) and fibroblasts modeled by human mesenchymal stem cells (MSCs). The concentration ranges selected for each drug and investigational agent were based upon clinically achievable concentrations if the clinical Cmax of the agent was known.
# Compounds. The drugs and investigational agents: alrizomadlin (APG-115; NSC831270), pelcitoclax (APG-1252; NSC835773), dasminapant (APG-1387;NSC834197), TAK-243 (NSC785004), copanlisib (NSC809693), olaparib (NSC753686), talazoparib (NSC767125), cobimetinib (NSC 768068), eltanexor (KPT-8602, NSC 794443), abemaciclib (NSC 768073), sotorasib (NSC818433), adagrasib (NSC 831453), MRTX-1133 (NSC 836407), Iadademestat (ORY1001, NSC 806812), and RMC-4630 (NSC839698), were obtained from the NCI Developmental Therapeutics Program Chemical Repository. The FDA-approved anticancer drug set is available from the Developmental Therapeutics Program at https://dtp.cancer.gov/organization/dscb/obtaining/available plates.htm. […] The stock solutions were prepared in dimethyl sulfoxide (DMSO, Sigma-Aldrich, St. Louis, MO, cat. D2650) at 800-fold the tested concentration and stored at -70 degrees C prior to their use. All drugs and investigational agents were tested over a range starting from a high concentration at or near the clinical Cmax and decreasing in half-log increments. If the clinical Cmax for an agent had not been determined, the highest concentration tested was 10 microM.
# The patient-derived cancer (PDC) cell lines include five colon adenocarcinomas: 186277-243-T-J2-PDC, 616215-338-R-J1-PDC, 439559-082-T-J2-PDC, 463943-066-T-J2-PDC, and 519858-162-T-J1-PDC; three pancreatic carcinomas: 323965-272-R-J2-PDC, 521955-158-R6-J3-PDC, and 521955-158-R2-J5-PDC; two uterine sarcomas: 327498-152-R-J2-PDC and 993429-296-R-J1-PDC; two rhabdomyosarcomas: 755483-174-R-J1-PDC and 772245-204-R-J1-PDC; two soft tissue sarcomas: 126254-015-R-J1-PDC and 494315-158-R-J1-PDC; two malignant fibrous histiocytomas: 317291-083-R-J1-PDC and 596521-263-R-J1-PDC; two breast carcinomas: 171881-019-R-J1-PDC and 885512-296-R-J2-PDC; and one ovarian carcinoma: 6556581-035-R-J-PDC were obtained from the NCI PDMR, (https://pdmr.cancer.gov). The established cell lines HSSY-2 synovial sarcoma (RRID:CVCL 8719), SYO-1 synovial sarcoma (RRID:CVCL_7146), MPNST malignant peripheral neural sheath tumor were obtained from the Sloan Kettering Institute. The following established cell lines were purchased from the American Type Culture Collection (ATCC, Manassas, VA), Sor the received from the NCI repository:, PANC-1 pancreatic carcinoma (CRL-1469, RRID:CVCL_0480), OVCAR-5 ovarian carcinoma (RRID:CVCL_1628), OVCAR-8 ovarian carcinoma (RRID:CVCL_1629), , MCF-7 breast carcinoma (CRL-12584, RRID:CVCL_0031), MDA-MB-231 breast carcinoma (CRL-12532, RRID:CVCL_0062), NCI-H1876 small cell lung carcinoma (CRL-5902, RRID:CVCL_1503), NCI-H510A small cell lung carcinoma (HTB-184, RRID:CVCL_1565), NCI-H1417 (CRL-5869, RRID:CVCL_1469), and NCI-H196 small cell lung carcinoma (CRL-5823, RRID:CVCL_1509). Dr. Peter Houghton (Greehey Children's Cancer Research Institute, University of Texas Health Science Center, San Antonio, TX) provided Rh-18 rhabdomyosarcoma (RRID:CVCL_1659). Pooled donor human umbilical vein endothelial cells (HUVEC, Lonza, cat. CC-2519) and human mesenchymal stem cells (hMSC, Lonza, cat. PT-2501) were purchased from Lonza (Walkersville, MD).
# Cell Culture. […]
# 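Further: seven day drug exposure begun three days after spheroid seeding.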
# 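Wherever viability, T/C is given: 100% = DMSO vehicle wells and lower values mean less viable spheroid.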
smiles,measurement,setting,value
C=CC(=O)N1CCN(c2nc(=O)n(-c3c(C)ccnc3C(C)C)c3nc(-c4c(O)cccc4F)c(F)cc23)C(C)C1 (centres undefined),"viability, T/C",compound 0.0316 µM,97.6% and 65.2% and 101%
same,"viability, T/C",compound 0.1 µM,87.3% and 70.7% and 109%
same,"viability, T/C",compound 0.316 µM,105% and 85.9% and 110%
same,"viability, T/C",compound 1 µM,87.3% and 95.3% and 117%
same,"viability, T/C",compound 3.16 µM,82.4% and 70.7% and 96.5%
same,"viability, T/C",compound 10 µM,93.6% and 72% and 104%
same,pIC50,curve of compound,< 5.00
NC(=O)C(=Cn1cnc(-c2cc(C(F)(F)F)cc(C(F)(F)F)c2)n1)c1cncnc1 + CNC(C)C(=O)NC1CN(S(=O)(=O)c2cccc(S(=O)(=O)N3CCC4CCC(C(=O)NC(c5ccccc5)c5ccccc5)N4C(=O)C(NC(=O)C(C)NC)C3)c2)CCC2CCC(C(=O)NC(c3ccccc3)c3ccccc3)N2C1=O,pIC50,"curve of first compound, second compound 0.00316 µM",< 6.52
same,pIC50,"curve of first compound, second compound 0.01 µM",< 6.52
same,pIC50,"curve of first compound, second compound 0.0316 µM",< 6.52
same,pIC50,"curve of first compound, second compound 0.1 µM",< 6.52
same,pIC50,"curve of first compound, second compound 0.316 µM",< 6.52
same,pIC50,"curve of first compound, second compound 1 µM",< 6.52
same,"viability, T/C","second compound 0.00316 µM, first compound 0.000949 µM",139%
same,"viability, T/C","second compound 0.00316 µM, first compound 0.003 µM",116%
same,"viability, T/C","second compound 0.00316 µM, first compound 0.00949 µM",102%
same,"viability, T/C","second compound 0.00316 µM, first compound 0.03 µM",83.8%
same,"viability, T/C","second compound 0.00316 µM, first compound 0.0949 µM",71.7%
same,"viability, T/C","second compound 0.00316 µM, first compound 0.3 µM",71.2%
same,"viability, T/C","second compound 0.01 µM, first compound 0.000949 µM",91.2%
same,"viability, T/C","second compound 0.01 µM, first compound 0.003 µM",80%
same,"viability, T/C","second compound 0.01 µM, first compound 0.00949 µM",67.5%
same,"viability, T/C","second compound 0.01 µM, first compound 0.03 µM",70.7%
same,"viability, T/C","second compound 0.01 µM, first compound 0.0949 µM",67%
same,"viability, T/C","second compound 0.01 µM, first compound 0.3 µM",55.6%
same,"viability, T/C","second compound 0.0316 µM, first compound 0.000949 µM",87%
same,"viability, T/C","second compound 0.0316 µM, first compound 0.003 µM",85.7%
same,"viability, T/C","second compound 0.0316 µM, first compound 0.00949 µM",80.1%
same,"viability, T/C","second compound 0.0316 µM, first compound 0.03 µM",54.8%
same,"viability, T/C","second compound 0.0316 µM, first compound 0.0949 µM",65%
same,"viability, T/C","second compound 0.0316 µM, first compound 0.3 µM",63.5%
same,"viability, T/C","second compound 0.1 µM, first compound 0.000949 µM",99.2%
same,"viability, T/C","second compound 0.1 µM, first compound 0.003 µM",96.3%
same,"viability, T/C","second compound 0.1 µM, first compound 0.00949 µM",98.4%
same,"viability, T/C","second compound 0.1 µM, first compound 0.03 µM",67.8%
same,"viability, T/C","second compound 0.1 µM, first compound 0.0949 µM",50.1%
same,"viability, T/C","second compound 0.1 µM, first compound 0.3 µM",71.2%
same,"viability, T/C","second compound 0.316 µM, first compound 0.000949 µM",86.3%
same,"viability, T/C","second compound 0.316 µM, first compound 0.003 µM",105%
same,"viability, T/C","second compound 0.316 µM, first compound 0.00949 µM",67.1%
same,"viability, T/C","second compound 0.316 µM, first compound 0.03 µM",65.7%
same,"viability, T/C","second compound 0.316 µM, first compound 0.0949 µM",69.5%
same,"viability, T/C","second compound 0.316 µM, first compound 0.3 µM",67.6%
same,"viability, T/C","second compound 1 µM, first compound 0.000949 µM",88.4%
same,"viability, T/C","second compound 1 µM, first compound 0.003 µM",71.4%
same,"viability, T/C","second compound 1 µM, first compound 0.00949 µM",76.5%
same,"viability, T/C","second compound 1 µM, first compound 0.03 µM",51.4%
same,"viability, T/C","second compound 1 µM, first compound 0.0949 µM",72.3%
same,"viability, T/C","second compound 1 µM, first compound 0.3 µM",109%
